Experimental data published in patent US20250326744A1, “PIPERAZINE DERIVATIVE OR SALT THEREOF, AND PHARMACEUTICAL COMPOSITION” (priority 2022, published 2025).
Counter-ions that a name gives are not always drawn.

Columns and labels:
mexB (PA) strain = test: Combinational effect with antibacterial agent against Pseudomonas aeruginosa (Test Examples 2 and 4): mexB (PA) strain with LVFX, TC or AZT at 1/4 MIC, EC99; format: cell-based; details: mexB (PA) strain, Test Example 4; for EC99, combinational effect with AZT, mexB (PA): combined with AZT at 1/4 MIC; for EC99, combinational effect with LVFX, mexB (PA): combined with LVFX at 1/4 MIC; for EC99, combinational effect with TC, mexB (PA): combined with TC at 1/4 MIC
Outline: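 EC99 denotes the minimum test-compound concentration (range 0–800 μM) that suppresses ≥99% of growth, measured by OD595, when combined with ¼ MIC levofloxacin (LVFX), tetracycline or aztreonam. The efflux-pump mutant mexB (PA), expressing mainly MexAB-OprM, was inoculated at 10^4–5 CFU/well in CAMHB for 16–20 h.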

S-3769 strain = test: Combinational effect with antibacterial agent against Pseudomonas aeruginosa (Test Examples 2 and 4): S-3769 strain with AMK or GM at 1/4 MIC, EC99; format: cell-based; details: S-3769 strain, Test Example 4; for EC99, combinational effect with AMK, S-3769 strain: combined with AMK at 1/4 MIC; for EC99, combinational effect with GM, S-3769 strain: combined with GM at 1/4 MIC
Outline: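 EC99, the lowest test-compound concentration inhibiting growth by ≥99% (OD595), was measured with aminoglycoside AMK or GM held at ¼ MIC. Strain S-3769, a MexY-overexpressing clinical isolate, was cultured in CAMHB at 10^4 to 5 CFU/well for 16–20 h; compound range 0–800 μM.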

Question: Which results are given for `CCOc1cccc(F)c1CN1CCN(C(=O)[C@H](N)C2CCN(CCc3cc(Cl)ccc3-c3cncc(O)c3)CC2)CC1` [Example 572, Hydrochloride of (R)-2-amino-2-(1-(5-chloro-2-(5-hydroxypyridin-3-yl)phenethyl)piperidin-4-yl)-1-(4-(2-ethoxy-6-fluorobenzyl)piperazin-1-yl) ethan-1-one]?
Answer: EC99, combinational effect with AZT, mexB (PA) (mexB (PA) strain): B (25 μM<EC99≤100 μM); EC99, combinational effect with LVFX, mexB (PA) (mexB (PA) strain): C (100 μM<EC99); EC99, combinational effect with TC, mexB (PA) (mexB (PA) strain): B (25 μM<EC99≤100 μM); EC99, combinational effect with AMK, S-3769 strain (S-3769 strain): A (12.5 μM<EC99≤25 μM); EC99, combinational effect with GM, S-3769 strain (S-3769 strain): A (12.5 μM<EC99≤25 μM)

Question: Which results are given for `COc1cccc(O)c1CN1CCN(C(=O)[C@H](N)C2CCN(CCc3cc(Cl)ccc3-c3ccccc3)CC2)CC1` [Example 575, Hydrochloride of (R)-2-amino-2-(1-(2-(4-chloro-[1,1-biphenyl]-2-yl)ethyl)piperidin-4-yl)-1-(4-(2-hydroxy-6-methoxybenzyl)piperazin-1-yl) ethan-1-one]?
Answer: EC99, combinational effect with AZT, mexB (PA) (mexB (PA) strain): S (EC99≤12.5 μM); EC99, combinational effect with LVFX, mexB (PA) (mexB (PA) strain): S (EC99≤12.5 μM); EC99, combinational effect with TC, mexB (PA) (mexB (PA) strain): A (12.5 μM<EC99≤25 μM); EC99, combinational effect with AMK, S-3769 strain (S-3769 strain): A (12.5 μM<EC99≤25 μM); EC99, combinational effect with GM, S-3769 strain (S-3769 strain): A (12.5 μM<EC99≤25 μM)

Question: With `CCOc1cccc(F)c1CN1CCN(C(=O)[C@H](N)C2CCN(CCc3cc(Cl)ccc3-c3c(O)cccc3F)CC2)CC1` [Example 578, Hydrochloride of (2R)-2-amino-2-(1-(2-(4-chloro-2′-fluoro-6′-hydroxy-[1,1-biphenyl]-2-yl)ethyl)piperidin-4-yl)-1-(4-(2-ethoxy-6-fluorobenzyl)piperazin-1-yl) ethan-1-one] as the molecule, how does the “EC99, combinational effect with AZT, mexB (PA)” value (from here on “EC99 … with AZT, mexB (PA)”) (mexB (PA) strain) read?
Answer: B (25 μM<EC99≤100 μM)

Question: What about the “EC99, combinational effect with LVFX, mexB (PA)” value (“EC99 … with LVFX, mexB (PA)” below) (mexB (PA) strain) of the same molecule?
Answer: A (12.5 μM<EC99≤25 μM)

Question: And the “EC99, combinational effect with TC, mexB (PA)” value (“EC99 … with TC, mexB (PA)” below) (mexB (PA) strain)?
Answer: B (25 μM<EC99≤100 μM)

Question: And the “EC99, combinational effect with AMK, S-3769 strain” value (from here on “EC99, combinational effect with AMK”) (S-3769 strain)?
Answer: B (25 μM<EC99≤100 μM)

Question: What about the “EC99, combinational effect with GM, S-3769 strain” value (from here on “EC99, combinational effect with GM”) (S-3769 strain) of the same molecule?
Answer: B (25 μM<EC99≤100 μM)

Question: What does the source list for `CCOc1cccc(F)c1CN1CCN(C(=O)[C@H](N)C2CCN(CCc3cc(Cl)ccc3-c3cc(Cl)ccc3O)CC2)CC1` [Example 580, Hydrochloride of (R)-2-amino-2-(1-(2-(4,5′-dichloro-2′-hydroxy-[1,1-biphenyl]-2-yl)ethyl)piperidin-4-yl)-1-(4-(2-ethoxy-6-fluorobenzyl)piperazin-1-yl)ethan-1-one]?
Answer: EC99, combinational effect with AZT, mexB (PA) (mexB (PA) strain): A (12.5 μM<EC99≤25 μM); EC99, combinational effect with LVFX, mexB (PA) (mexB (PA) strain): S (EC99≤12.5 μM); EC99, combinational effect with TC, mexB (PA) (mexB (PA) strain): A (12.5 μM<EC99≤25 μM); EC99, combinational effect with AMK, S-3769 strain (S-3769 strain): S (EC99≤12.5 μM); EC99, combinational effect with GM, S-3769 strain (S-3769 strain): A (12.5 μM<EC99≤25 μM)

Question: For `CCOc1cccc(F)c1CN1CCN(C(=O)[C@H](N)C2CCN(CCc3cc(Cl)ccc3-c3cccc(F)c3O)CC2)CC1` [Example 581, Hydrochloride of (R)-2-amino-2-(1-(2-(4-chloro-3′-fluoro-2′-hydroxy-[1,1-biphenyl]-2-yl)ethyl)piperidin-4-yl)-1-(4-(2-ethoxy-6-fluorobenzyl)piperazin-1-yl)ethan-1-one], which “EC99 … with AZT, mexB (PA)” value (mexB (PA) strain) is on record?
Answer: B (25 μM<EC99≤100 μM)

Question: What about the “EC99 … with LVFX, mexB (PA)” value (mexB (PA) strain) of the same molecule?
Answer: A (12.5 μM<EC99≤25 μM)

Question: What about the “EC99 … with TC, mexB (PA)” value (mexB (PA) strain) of the same molecule?
Answer: B (25 μM<EC99≤100 μM)

Question: What about the “EC99, combinational effect with AMK” value (S-3769 strain) of the same molecule?
Answer: A (12.5 μM<EC99≤25 μM)

Question: What about the “EC99, combinational effect with GM” value (S-3769 strain) of the same molecule?
Answer: A (12.5 μM<EC99≤25 μM)

Question: Which results are given for `CCOc1cccc(F)c1CN1CCN(C(=O)[C@H](N)C2CCN(CCc3cc(Cl)ccc3-c3cc(O)cc(F)c3)CC2)CC1` [Example 583, Hydrochloride of (R)-2-amino-2-(1-(2-(4-chloro-3′-fluoro-5′-hydroxy-[1,1-biphenyl]-2-yl)ethyl)piperidin-4-yl)-1-(4-(2-ethoxy-6-fluorobenzyl)piperazin-1-yl)ethan-1-one]?
Answer: EC99, combinational effect with AZT, mexB (PA) (mexB (PA) strain): A (12.5 μM<EC99≤25 μM); EC99, combinational effect with LVFX, mexB (PA) (mexB (PA) strain): S (EC99≤12.5 μM); EC99, combinational effect with TC, mexB (PA) (mexB (PA) strain): A (12.5 μM<EC99≤25 μM); EC99, combinational effect with AMK, S-3769 strain (S-3769 strain): S (EC99≤12.5 μM); EC99, combinational effect with GM, S-3769 strain (S-3769 strain): S (EC99≤12.5 μM)

Question: How did the “EC99 … with AZT, mexB (PA)” value (mexB (PA) strain) turn out when `CCOc1cccc(F)c1CN1CCN(C(=O)[C@H](N)C2CCN(CCc3cc(Cl)ccc3-c3cc(O)cc(Cl)c3)CC2)CC1` [Example 584, (R)-2-amino-2-(1-(2-(3′,4-dichloro-5′-hydroxy-[1,1′-biphenyl]-2-yl)ethyl)piperidin-4-yl)-1-(4-(2-ethoxy-6-fluorobenzyl)piperazin-1-yl)ethan-1-one] was run?
Answer: S (EC99≤12.5 μM)

Question: And the “EC99 … with LVFX, mexB (PA)” value (mexB (PA) strain)?
Answer: S (EC99≤12.5 μM)

Question: And the “EC99 … with TC, mexB (PA)” value (mexB (PA) strain)?
Answer: S (EC99≤12.5 μM)

Question: And the “EC99, combinational effect with AMK” value (S-3769 strain)?
Answer: S (EC99≤12.5 μM)

Question: And the “EC99, combinational effect with GM” value (S-3769 strain)?
Answer: S (EC99≤12.5 μM)

Question: With `CCOc1cccc(F)c1CN1CCN(C(=O)[C@H](N)C2CCN(CCc3cc(Cl)ccc3-c3cc(O)ccc3F)CC2)CC1` [Example 585, (R)-2-amino-2-(1-(2-(4-chloro-2′-fluoro-5′-hydroxy-[1,1′-biphenyl]-2-yl)ethyl)piperidin-4-yl)-1-(4-(2-ethoxy-6-fluorobenzyl)piperazin-1-yl)ethan-1-one] as the molecule, how does the “EC99 … with AZT, mexB (PA)” value (mexB (PA) strain) read?
Answer: S (EC99≤12.5 μM)

Question: What about the “EC99 … with LVFX, mexB (PA)” value (mexB (PA) strain) of the same molecule?
Answer: S (EC99≤12.5 μM)

Question: What about the “EC99 … with TC, mexB (PA)” value (mexB (PA) strain) of the same molecule?
Answer: S (EC99≤12.5 μM)

Question: And the “EC99, combinational effect with AMK” value (S-3769 strain)?
Answer: S (EC99≤12.5 μM)

Question: What about the “EC99, combinational effect with GM” value (S-3769 strain) of the same molecule?
Answer: S (EC99≤12.5 μM)

Question: Which “EC99 … with AZT, mexB (PA)” value (mexB (PA) strain) does the source give for `CCOc1cccc(F)c1CN1CCN(C(=O)[C@H](N)C2CCN(CCc3cc(Cl)ccc3-c3cc(O)ccc3Cl)CC2)CC1` [Example 586, Hydrochloride of (R)-2-amino-2-(1-(2-(2′,4-dichloro-5′-hydroxy-[1,1-biphenyl]-2-yl)ethyl)piperidin-4-yl)-1-(4-(2-ethoxy-6-fluorobenzyl)piperazin-1-yl)ethan-1-one] here?
Answer: S (EC99≤12.5 μM)

Question: What about the “EC99 … with LVFX, mexB (PA)” value (mexB (PA) strain) of the same molecule?
Answer: S (EC99≤12.5 μM)

Question: And the “EC99 … with TC, mexB (PA)” value (mexB (PA) strain)?
Answer: S (EC99≤12.5 μM)

Question: And the “EC99, combinational effect with AMK” value (S-3769 strain)?
Answer: A (12.5 μM<EC99≤25 μM)

Question: What about the “EC99, combinational effect with GM” value (S-3769 strain) of the same molecule?
Answer: S (EC99≤12.5 μM)

Question: `CSc1ccc(O)cc1CN1CCN(C(=O)[C@H](N)C2CCN(CCc3cc(Cl)ccc3-c3ccccc3)CC2)CC1` [Example 587, Hydrochloride of (R)-2-amino-2-(1-(2-(4-chloro-[1,1-biphenyl]-2-yl)ethyl)piperidin-4-yl)-1-(4-(5-hydroxy-2-(methylthio)benzyl)piperazin-1-yl) ethan-1-one] was tested. Which “EC99 … with AZT, mexB (PA)” value (mexB (PA) strain) did it give?
Answer: S (EC99≤12.5 μM)

Question: And the “EC99 … with LVFX, mexB (PA)” value (mexB (PA) strain)?
Answer: S (EC99≤12.5 μM)

Question: And the “EC99 … with TC, mexB (PA)” value (mexB (PA) strain)?
Answer: S (EC99≤12.5 μM)

Question: What about the “EC99, combinational effect with AMK” value (S-3769 strain) of the same molecule?
Answer: A (12.5 μM<EC99≤25 μM)

Question: What about the “EC99, combinational effect with GM” value (S-3769 strain) of the same molecule?
Answer: A (12.5 μM<EC99≤25 μM)

Question: What does the source list for `N[C@@H](C(=O)N1CCN(Cc2c(O)cccc2C(F)(F)F)CC1)C1CCN(CCc2cc(Cl)ccc2-c2ccccc2)CC1` [Example 588, Hydrochloride of (R)-2-amino-2-(1-(2-(4-chloro-[1,1-biphenyl]-2-yl)ethyl)piperidin-4-yl)-1-(4-(2-hydroxy-6-(trifluoromethyl)benzyl)piperazin-1-yl) ethan-1-one]?
Answer: EC99, combinational effect with AZT, mexB (PA) (mexB (PA) strain): B (25 μM<EC99≤100 μM); EC99, combinational effect with LVFX, mexB (PA) (mexB (PA) strain): A (12.5 μM<EC99≤25 μM); EC99, combinational effect with TC, mexB (PA) (mexB (PA) strain): A (12.5 μM<EC99≤25 μM); EC99, combinational effect with AMK, S-3769 strain (S-3769 strain): A (12.5 μM<EC99≤25 μM); EC99, combinational effect with GM, S-3769 strain (S-3769 strain): A (12.5 μM<EC99≤25 μM)
